{"source": "patent US20240315991A1", "about": "“USES OF HNF4 ALPHA AGONISTS” (Sanford Burnham Prebys Medical Discovery Institute, priority 2023, published 2024)", "system": "blood alanine transaminase (ALT)", "experiment": "Liver profile analysis, blood ALT", "assay_type": "in vivo, mouse", "details": "mice fed on HFD, HFD+NCT vs HFD, FIG. 5I", "procedure": "NCT oral administration. Four-week-old male C57BL/6J (JAX cat #000664) mice were purchased from Jackson laboratory and were maintained in a 12 h light/dark cycle throughout the experiment. Prior to the experiments, mice were acclimated for 2 weeks. Six-week-old mice with similar body weights were randomized to a normal diet (NC), a high fat diet (HFD) (Research Diets, cat #D12492 60 kcal % fat) or HFD containing 4000 ppm NCT (HFD+NCT) (Research Diets, 60 kcal % fat+4000 ppm NCT), which was calculated to provide approximately 400 mg/kg/d NCT. HFD chow containing NCT was made with gray dye to distinguish it from regular HFD chow that had green dye. Mice for each treatment group were placed in separate cages. Equal amounts of fresh chow were provided every week to all mice. Body weight gain and food intake were measured every week for 10 weeks. After 10 weeks of chow treatment, mice were sacrificed for analysis. […]\nLiver profile analysis. […] The levels of multiple analytes, including alkaline phosphatase (ALP), alanine aminotransferase (ALT), gamma glutamyl transferase (GGT), bile acids (BA), total bilirubin (TBIL), albumin (ALB), blood urea nitrogen (BUN), total cholesterol (CHOL) were quantified using a VetScan VS2 Chemistry Analyzer (Abaxis North America, USA).", "data": [{"smiles": "O=C(/C=C/c1ccc(O)c(O)c1)NCCc1ccc(O)cc1", "note": "[NCT, N-trans caffeoyltyramine]", "values": [{"measurement": "blood alanine transaminase (ALT) level", "result": "decrease"}]}]}
